In brackets after ≈: the same amount, converted by molar mass. Each block holds one compound with its values, some of them ahead of it. Activity calls are given as the source filed them. No cut-off for these calls is given here.
Legend:
[1] = test system: PC-3; assay: Cytotoxicity against human PC3 cells after 72 hrs by MTT assay; format: functional, cell-based; details: PC-3, 72 h
[2] = (§1) Cytotoxicity against mouse Neuro2a cells after 72 hrs by MTT assay; format: functional, cell-based; details: N2a
[3] = test system: A-375; assay: Cytotoxicity against human A375 cells after 72 hrs by MTT assay; format: functional, cell-based; details: A-375, 72 h
[4] = Cytotoxicity against human MG63 cells after 72 hrs by MTT assay; format: functional, cell-based; details: MG-63, 72 h
[5] = Cytotoxicity against human HK2 cells after 72 hrs by MTT assay; format: cell-based; details: HK-2, 72 h
[6] = Cytotoxicity against human HeLa 229 cells after 72 hrs by MTT assay; format: functional, cell-based; details: HeLa 229, 72 h
[7] = Cell cycle arrest in mouse Neuro2a cells assessed as accumulation at G0/G1 phase at 2 ug/ml after 72 hrs using propidium iodide staining by flow cytometry analysis (reference value: 41.6%); format: functional, cell-based; details: N2a
[8] = test system: Neuro2a; assay: Inhibition of JNK phosphorylation in mouse Neuro2a cells assessed as total protein level at 8 ug/ml after 24 hrs by Western blot analysis relative to beta-actin; format: cell-based
[9] = test system: Neuro2a; assay: Inhibition of ERK phosphorylation in mouse Neuro2a cells assessed as total protein level at 8 ug/ml after 24 hrs by Western blot analysis relative to beta-actin; format: cell-based
[10] = test system: N2a; assay: as §1; format: functional, cell-based
[11] = test system: Neuro2a; assay: Inhibition of JNK phosphorylation in mouse Neuro2a cells at 4 ug/ml after 24 hrs by Western blot analysis relative to beta-actin; format: cell-based
[12] = test system: Neuro2a; assay: Inhibition of JNK phosphorylation in mouse Neuro2a cells assessed as total protein level at 4 ug/ml after 24 hrs by Western blot analysis relative to beta-actin; format: cell-based
[13] = test system: Neuro2a; assay: Inhibition of JNK phosphorylation in mouse Neuro2a cells assessed as total protein level at 2 ug/ml after 24 hrs by Western blot analysis relative to beta-actin; format: cell-based
[14] = target: RAC-alpha serine/threonine-protein kinase (Mus musculus) (UniProt P31750); assay: Inhibition of AKT phosphorylation in mouse Neuro2a cells at 4 ug/ml after 24 hrs by Western blot analysis relative to beta-actin; format: cell-based
[15] = Cell cycle arrest in mouse Neuro2a cells assessed as accumulation at sub-G1 phase after 72 hrs using propidium iodide staining by flow cytometry analysis; format: functional, cell-based; details: N2a
[16] = test system: Neuro2a; assay: Inhibition of ERK phosphorylation in mouse Neuro2a cells at 4 ug/ml after 24 hrs by Western blot analysis relative to beta-actin; format: cell-based
[17] = Cell cycle arrest in mouse Neuro2a cells assessed as accumulation at S phase at 2 ug/ml after 72 hrs using propidium iodide staining by flow cytometry analysis (reference value: 48.5%); format: functional, cell-based; details: N2a
[18] = target: T1, MAP kinase p38 (Mus musculus) (UniProt P47811+O08911+Q9WUI1+Q9Z1B7); assay: Inhibition of p38 phosphorylation in mouse Neuro2a cells at 2 to 8 ug/ml after 24 hrs by Western blot analysis; format: cell-based
[19] = target: T1, MAP kinase p38 (Mus musculus); assay: Inhibition of p38 phosphorylation in mouse Neuro2a cells assessed as total protein level at 4 ug/ml after 24 hrs by Western blot analysis relative to beta-actin; format: cell-based
[20] = Cell cycle arrest in mouse Neuro2a cells assessed as accumulation at G0/G1 phase at 4 ug/ml after 72 hrs using propidium iodide staining by flow cytometry analysis (reference value: 41.6%); format: functional, cell-based; details: N2a
[21] = test system: N2a; assay: Induction of apoptosis in mouse Neuro2a cells assessed as activation of caspase-9 at 4 ug/ml using Ac-LEHD-AFC as substrate by fluorometric assay relative to control; format: functional
[22] = target: RAC-alpha serine/threonine-protein kinase (Mus musculus) (UniProt P31750); assay: Inhibition of AKT phosphorylation in mouse Neuro2a cells assessed as total protein level after 24 hrs by Western blot analysis; format: cell-based
[23] = test system: N2a; assay: Induction of apoptosis in mouse Neuro2a cells assessed as activation of caspase-3 at 8 ug/ml using Ac-[…]-AFC as substrate by fluorometric assay relative to control; format: functional
[24] = test system: Neuro2a; assay: Inhibition of ERK phosphorylation in mouse Neuro2a cells assessed as total protein level at 2 ug/ml after 24 hrs by Western blot analysis relative to beta-actin; format: cell-based
[25] = test system: Neuro2a; assay: Inhibition of JNK phosphorylation in mouse Neuro2a cells at 2 ug/ml after 24 hrs by Western blot analysis relative to beta-actin; format: cell-based
[26] = test system: Neuro2a; assay: Inhibition of JNK phosphorylation in mouse Neuro2a cells at 8 ug/ml after 24 hrs by Western blot analysis relative to beta-actin; format: cell-based
[27] = Cell cycle arrest in mouse Neuro2a cells assessed as accumulation at G2/M phase at 4 ug/ml after 72 hrs using propidium iodide staining by flow cytometry analysis (reference value: 9.9%); format: functional, cell-based; details: N2a
[28] = test system: N2a; assay: Induction of apoptosis in mouse Neuro2a cells assessed as DNA fragmentation and nuclear condensation after 24 hrs by TUNEL-DAPI co-staining assay; format: functional, cell-based
[29] = Cell cycle arrest in mouse Neuro2a cells assessed as accumulation at S phase at 8 ug/ml after 72 hrs using propidium iodide staining by flow cytometry analysis (reference value: 48.5%); format: functional, cell-based; details: N2a
[30] = test system: N2a; assay: Induction of apoptosis in mouse Neuro2a cells assessed as reduction of ROS production after 3 hrs by DCF fluorescence assay; format: functional, cell-based
[31] = target: RAC-alpha serine/threonine-protein kinase (Mus musculus) (UniProt P31750); assay: Inhibition of AKT phosphorylation in mouse Neuro2a cells after 24 hrs by Western blot analysis; format: cell-based
[32] = test system: N2a; assay: Cytotoxicity against mouse Neuro2a cells at 8 ug/ml after 24 hrs by MTT assay in presence of NAC; format: functional, cell-based
[33] = Cell cycle arrest in mouse Neuro2a cells assessed as accumulation at sub-G1 phase at 4 ug/ml after 72 hrs using propidium iodide staining by flow cytometry analysis (reference value: 4.7%); format: functional, cell-based; details: N2a
[34] = target: RAC-alpha serine/threonine-protein kinase (Mus musculus) (UniProt P31750); assay: Inhibition of AKT phosphorylation in mouse Neuro2a cells at 2 ug/ml after 24 hrs by Western blot analysis relative to beta-actin; format: cell-based
[35] = target: T1, MAP kinase p38 (Mus musculus); assay: Inhibition of p38 phosphorylation in mouse Neuro2a cells assessed as total protein level at 2 ug/ml after 24 hrs by Western blot analysis relative to beta-actin; format: cell-based
[36] = test system: N2a; assay: Induction of apoptosis in mouse Neuro2a cells assessed as activation of caspase-8 using IETD-AFC as substrate by fluorometric assay; format: functional, cell-based
[37] = Cell cycle arrest in mouse Neuro2a cells assessed as accumulation at G0/G1 phase at 8 ug/ml after 72 hrs using propidium iodide staining by flow cytometry analysis (reference value: 41.6%); format: functional, cell-based; details: N2a
[38] = Cell cycle arrest in mouse Neuro2a cells assessed as accumulation at sub-G1 phase at 2 ug/ml after 72 hrs using propidium iodide staining by flow cytometry analysis (reference value: 4.7%); format: functional, cell-based; details: N2a
[39] = Antioxidant activity assessed as ABTS free radical scavenging activity; format: functional; details: TDE = time-dependent effect
[40] = test system: Neuro2a; assay: Inhibition of JNK phosphorylation in mouse Neuro2a cells assessed as total protein level at 2 to 8 ug/ml after 24 hrs by Western blot analysis; format: cell-based
[41] = target: RAC-alpha serine/threonine-protein kinase (Mus musculus) (UniProt P31750); assay: Inhibition of AKT phosphorylation in mouse Neuro2a cells assessed as total protein level at 2 ug/ml after 24 hrs by Western blot analysis relative to beta-actin; format: cell-based
[42] = target: RAC-alpha serine/threonine-protein kinase (Mus musculus) (UniProt P31750); assay: Inhibition of AKT phosphorylation in mouse Neuro2a cells assessed as total protein level at 8 ug/ml after 24 hrs by Western blot analysis relative to beta-actin; format: cell-based
[43] = Cell cycle arrest in mouse Neuro2a cells assessed as accumulation at sub-G1 phase at 8 ug/ml after 72 hrs using propidium iodide staining by flow cytometry analysis (reference value: 4.7%); format: functional, cell-based; details: N2a
[44] = test system: Neuro2a; assay: Inhibition of ERK phosphorylation in mouse Neuro2a cells at 2 ug/ml after 24 hrs by Western blot analysis relative to beta-actin; format: cell-based
[45] = target: RAC-alpha serine/threonine-protein kinase (Mus musculus) (UniProt P31750); assay: Inhibition of AKT phosphorylation in mouse Neuro2a cells assessed as total protein level at 4 ug/ml after 24 hrs by Western blot analysis relative to beta-actin; format: cell-based
[46] = Cell cycle arrest in mouse Neuro2a cells assessed as accumulation at G2/M phase at 2 ug/ml after 72 hrs using propidium iodide staining by flow cytometry analysis (reference value: 9.9%); format: functional, cell-based; details: N2a
[47] = test system: Neuro2a; assay: Inhibition of ERK phosphorylation in mouse Neuro2a cells at 8 ug/ml after 24 hrs by Western blot analysis relative to beta-actin; format: cell-based
[48] = test system: N2a; assay: Induction of apoptosis in mouse Neuro2a cells assessed as activation of caspase-3 using Ac-DEVD-AFC as substrate by fluorometric assay; format: functional, cell-based
[49] = Cell cycle arrest in mouse Neuro2a cells assessed as accumulation at G2/M phase at 8 ug/ml after 72 hrs using propidium iodide staining by flow cytometry analysis (reference value: 9.9%); format: functional, cell-based; details: N2a
[50] = Cell cycle arrest in mouse Neuro2a cells assessed as accumulation at S phase at 4 ug/ml after 72 hrs using propidium iodide staining by flow cytometry analysis (reference value: 48.5%); format: functional, cell-based; details: N2a
[51] = target: T1, MAP kinase p38 (Mus musculus); assay: Inhibition of p38 phosphorylation in mouse Neuro2a cells assessed as total protein level at 8 ug/ml after 24 hrs by Western blot analysis relative to beta-actin; format: cell-based
[52] = test system: Neuro2a; assay: Inhibition of ERK phosphorylation in mouse Neuro2a cells assessed as total protein level at 4 ug/ml after 24 hrs by Western blot analysis relative to beta-actin; format: cell-based
[53] = test system: N2a; assay: Induction of apoptosis in mouse Neuro2a cells assessed as activation of caspase-9 using Ac-LEHD-AFC as substrate by fluorometric assay; format: functional, cell-based
[54] = target: RAC-alpha serine/threonine-protein kinase (Mus musculus) (UniProt P31750); assay: Inhibition of AKT phosphorylation in mouse Neuro2a cells at 8 ug/ml after 24 hrs by Western blot analysis relative to beta-actin; format: cell-based

RAC-alpha serine/threonine-protein kinase (Mus musculus), sequence (P31750 whole entry): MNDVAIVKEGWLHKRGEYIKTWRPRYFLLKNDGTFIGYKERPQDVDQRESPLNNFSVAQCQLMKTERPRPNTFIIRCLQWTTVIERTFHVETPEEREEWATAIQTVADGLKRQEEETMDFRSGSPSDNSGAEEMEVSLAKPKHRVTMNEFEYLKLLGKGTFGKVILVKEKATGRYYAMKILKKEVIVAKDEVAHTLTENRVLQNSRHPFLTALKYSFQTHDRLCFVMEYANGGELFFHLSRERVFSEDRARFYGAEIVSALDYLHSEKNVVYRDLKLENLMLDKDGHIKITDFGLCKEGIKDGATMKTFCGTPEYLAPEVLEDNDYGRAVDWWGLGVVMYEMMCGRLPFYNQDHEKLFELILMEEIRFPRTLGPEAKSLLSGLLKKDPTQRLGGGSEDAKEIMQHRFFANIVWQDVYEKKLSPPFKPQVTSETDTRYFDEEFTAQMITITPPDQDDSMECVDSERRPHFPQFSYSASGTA

SMILES: O=C(CCC(=O)c1cccs1)c1cccs1
- IC50 [1]: > 400 µg/mL
- IC50 [2]: 343 µg/mL (≈ 1370 µM)
- IC50 [3]: 115 µg/mL (≈ 459 µM)
- IC50 [4]: 366 µg/mL (≈ 1460 µM)
- IC50 [5]: > 400 µg/mL
- IC50 [6]: > 400 µg/mL

- fold change (FC) [14]: 0.3
- inhibition [18]: inactive
- fold change (FC) [19]: 1.6
- inhibition [22]: Dose-dependent effect
- inhibition [31]: Dose-dependent effect
- fold change (FC) [34]: 0.8
- fold change (FC) [35]: 1.2
- fold change (FC) [41]: 0.8
- fold change (FC) [42]: 0.4
- fold change (FC) [45]: 0.7
- fold change (FC) [51]: 1.7
- fold change (FC) [54]: 0.1
SMILES: Oc1ccc(-n2c(-c3cccs3)ccc2-c2cccs2)cc1
- IC50 [1]: 51.3 µg/mL (≈ 159 µM)
- Activity [7]: 39.9%
- fold change (FC) [8]: 0.9
- fold change (FC) [9]: 0.6
- growth inhibition (GI) [10]: Dose-dependent effect
- IC50 [2]: 2.6 µg/mL (≈ 8.04 µM)
- fold change (FC) [11]: 1.6
- fold change (FC) [12]: 1
- fold change (FC) [13]: 1
- IC50 [3]: 27.6 µg/mL (≈ 85.3 µM)
- Activity [15]: Dose-dependent effect
- fold change (FC) [16]: 0
- Activity [17]: 48.5%
- Activity [20]: 46.9%
- fold change (FC) [21]: 1.4
- fold change (FC) [23]: 1.5
- fold change (FC) [24]: 1
- fold change (FC) [25]: 0.9
- fold change (FC) [26]: 2.1
- Activity [27]: 10.5%
- Activity [28]: Dose-dependent effect
- IC50 [4]: 39.6 µg/mL (≈ 122 µM)
- Activity [29]: 38.9%
- Activity [30]: Dose-dependent effect
- growth inhibition (GI) [32]: Active
- Activity [33]: 19.2%
- Activity [36]: Dose-dependent effect
- Activity [37]: 44.4%
- Activity [38]: 9.1%
- Activity [39]: tde
- inhibition [40]: inactive
- Activity [43]: 26.3%
- fold change (FC) [44]: 0
- Activity [46]: 11.6%
- fold change (FC) [47]: 0
- Activity [48]: Dose-dependent effect
- Activity [49]: 15.7%
- Activity [50]: 42.6%
- IC50 [5]: 73.4 µg/mL (≈ 227 µM)
- fold change (FC) [52]: 0.6
- IC50 [6]: 36.4 µg/mL (≈ 113 µM)
- Activity [53]: Dose-dependent effect

Source: ChEMBL document CHEMBL3217578, “Synthesis of a novel thiophene derivative that induces cancer cell apoptosis through modulation of AKT and MAPK pathways” (Medchemcomm, 2012)
